Data reported in patent US10750743B2, “Pyridazinone herbicides” (E.I. DU PONT DE NEMOURS AND COMPANY, priority 2015, dated 2020).

Columns and labels:
Assay type in all cases: in vivo
kochia (Kochia scoparia) [1] = assay: Test A preemergence, directed soil spray, visual injury rating; settings: Bassia scoparia, pre-emergence, 240 h, 0 is no effect, 100 is complete control, read-out: Plant response rating (0 to 100 scale), Kochia; for pest or weed control at 31 g/ha: 31 g ai/ha; for pest or weed control at 125 g/ha: 125 g ai/ha
Outline: (§1)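 Compounds in a surfactant-containing solvent were applied as a directed soil spray preemergence, or postemergence to plants 2-10 cm tall at the one- to two-leaf stage, in loam-sand blend. After about 10 d in the greenhouse, injury was rated visually against untreated controls on a 0-100 scale (100 = complete control).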

[2] = tested on: ryegrass, It. (Italian ryegrass, Lolium multiflorum); assay: as above; settings: Lolium multiflorum, pre-emergence, 240 h, 0 is no effect, 100 is complete control, read-out: Plant response rating (0 to 100 scale), Ryegrass, It.; for pest or weed control at 31 g/ha: 31 g ai/ha; for pest or weed control at 125 g/ha: 125 g ai/ha
Outline: as §1

[3] = tested on: pigweed (Amaranthus retroflexus); assay: as above; settings: Amaranthus retroflexus, pre-emergence, 240 h, 0 is no effect, 100 is complete control, read-out: Plant response rating (0 to 100 scale), Pigweed; for pest or weed control at 31 g/ha: 31 g ai/ha; for pest or weed control at 125 g/ha: 125 g ai/ha
Outline: as §1

[4] = tested on: foxtail, giant (giant foxtail, Setaria faberii); assay: as above; settings: Setaria faberi, pre-emergence, 240 h, 0 is no effect, 100 is complete control, read-out: Plant response rating (0 to 100 scale), Foxtail, Giant; for pest or weed control at 31 g/ha: 31 g ai/ha; for pest or weed control at 125 g/ha: 125 g ai/ha
Outline: as §1

[5] = tested on: barnyardgrass (Echinochloa crus-galli); assay: as above; settings: Echinochloa crus-galli, pre-emergence, 240 h, 0 is no effect, 100 is complete control, read-out: Plant response rating (0 to 100 scale), Barnyardgrass; for pest or weed control at 31 g/ha: 31 g ai/ha; for pest or weed control at 125 g/ha: 125 g ai/ha
Outline: as §1

[6] = tested on: ragweed (common ragweed, Ambrosia elatior); assay: as above; settings: Ambrosia artemisiifolia, pre-emergence, 240 h, 0 is no effect, 100 is complete control, read-out: Plant response rating (0 to 100 scale), Ragweed; for pest or weed control at 31 g/ha: 31 g ai/ha; for pest or weed control at 125 g/ha: 125 g ai/ha
Outline: as §1

[7] = tested on: galium (catchweed bedstraw, Galium aparine); assay: Test A postemergence application, visual injury rating; settings: for Plant response rating (0 to 100 scale), Galium: 31 g ai/ha, 0 is no effect, 100 is complete control; for pest or weed control at 125 g/ha: Galium, post-emergence, 240 h, 125 g ai/ha, 0 to 100 scale, 0 no effect, 100 complete control, read-out: Galium plant response rating
Outline: as §1

corn (Zea mays) = assay: as above; settings: for Plant response rating (0 to 100 scale), Corn: 31 g ai/ha, 0 is no effect, 100 is complete control; for plant injury at 125 g/ha: Zea mays, post-emergence, 240 h, 125 g ai/ha, 0 to 100 scale, 0 no effect, 100 complete control, read-out: Corn plant response rating
Outline: as §1

kochia (Kochia scoparia) [8] = assay: as above; settings: for Plant response rating (0 to 100 scale), Kochia: 31 g ai/ha, 0 is no effect, 100 is complete control; for pest or weed control at 125 g/ha: Bassia scoparia, post-emergence, 240 h, 125 g ai/ha, 0 to 100 scale, 0 no effect, 100 complete control, read-out: Kochia plant response rating
Outline: as §1

[9] = tested on: wheat (Triticum aestivum); assay: as above; settings: for Plant response rating (0 to 100 scale), Wheat: 31 g ai/ha, 0 is no effect, 100 is complete control; for plant injury at 125 g/ha: Triticum aestivum, post-emergence, 240 h, 125 g ai/ha, 0 to 100 scale, 0 no effect, 100 complete control, read-out: Wheat plant response rating
Outline: as §1

[10] = tested on: blackgrass (Alopecurus myosuroides); assay: as above; settings: Alopecurus myosuroides, post-emergence, 240 h, 0 to 100 scale, 0 no effect, 100 complete control, read-out: Blackgrass plant response rating; for pest or weed control at 31 g/ha: 31 g ai/ha; for pest or weed control at 125 g/ha: 125 g ai/ha
Outline: as §1

[11] = tested on: ryegrass, It. (Italian ryegrass, Lolium multiflorum); assay: as above; settings: for Plant response rating (0 to 100 scale), Ryegrass, It.: 31 g ai/ha, 0 is no effect, 100 is complete control; for pest or weed control at 125 g/ha: Lolium multiflorum, post-emergence, 240 h, 125 g ai/ha, 0 to 100 scale, 0 no effect, 100 complete control, read-out: Ryegrass, It. plant response rating
Outline: as §1

[12] = tested on: pigweed (Amaranthus retroflexus); assay: as above; settings: for Plant response rating (0 to 100 scale), Pigweed: 31 g ai/ha, 0 is no effect, 100 is complete control; for pest or weed control at 125 g/ha: Amaranthus retroflexus, post-emergence, 240 h, 125 g ai/ha, 0 to 100 scale, 0 no effect, 100 complete control, read-out: Pigweed plant response rating
Outline: as §1

[13] = tested on: foxtail, giant (giant foxtail, Setaria faberii); assay: as above; settings: for Plant response rating (0 to 100 scale), Foxtail, Giant: 31 g ai/ha, 0 is no effect, 100 is complete control; for pest or weed control at 125 g/ha: Setaria faberi, post-emergence, 240 h, 125 g ai/ha, 0 to 100 scale, 0 no effect, 100 complete control, read-out: Foxtail, Giant plant response rating
Outline: as §1

[14] = tested on: barnyardgrass (Echinochloa crus-galli); assay: as above; settings: Echinochloa crus-galli, post-emergence, 240 h, 0 to 100 scale, 0 no effect, 100 complete control, read-out: Barnyardgrass plant response rating; for pest or weed control at 31 g/ha: 31 g ai/ha; for pest or weed control at 125 g/ha: 125 g ai/ha
Outline: as §1

[15] = tested on: ragweed (common ragweed, Ambrosia elatior); assay: as above; settings: for Plant response rating (0 to 100 scale), Ragweed: 31 g ai/ha, 0 is no effect, 100 is complete control; for pest or weed control at 125 g/ha: Ambrosia artemisiifolia, post-emergence, 240 h, 125 g ai/ha, 0 to 100 scale, 0 no effect, 100 complete control, read-out: Ragweed plant response rating
Outline: as §1

[16] = tested on: ducksalad (Heteranthera limosa); assay: Test B flooded paddy test, visual rating; settings: Heteranthera limosa, 360 h; Flood, 250 g ai/ha, applied to paddy water, rated after 13 to 15 d; read-out: Ducksalad plant response rating (0 to 100 scale, 0 is no effect, 100 is complete control)
Outline: (§2)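 Plants grown to the 2-leaf stage. At treatment, pots were flooded to 3 cm above the soil, compound was applied directly to the paddy water, and that depth was held throughout. After 13 to 15 d in the greenhouse, response was rated visually against controls on a 0 (no effect) to 100 (complete control) scale.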

rice (Oryza sativa) = assay: Test B flooded paddy test, visual rating; settings: Oryza sativa, 360 h; Flood, 250 g ai/ha, applied to paddy water, rated after 13 to 15 d; read-out: Rice plant response rating (0 to 100 scale, 0 is no effect, 100 is complete control)
Outline: as §2

[17] = tested on: barnyardgrass (Echinochloa crus-galli); assay: Test B flooded paddy test, visual rating; settings: Echinochloa crus-galli, 360 h; Flood, 250 g ai/ha, applied to paddy water, rated after 13 to 15 d; read-out: Barnyardgrass plant response rating (0 to 100 scale, 0 is no effect, 100 is complete control)
Outline: as §2

Row | SMILES | pest or weed control at 31 g/ha (kochia (Kochia scoparia) [1]) | pest or weed control at 125 g/ha (kochia (Kochia scoparia) [1]) | pest or weed control at 31 g/ha [2] | pest or weed control at 125 g/ha [2] | pest or weed control at 31 g/ha [3] | pest or weed control at 125 g/ha [3] | pest or weed control at 31 g/ha [4] | pest or weed control at 125 g/ha [4] | pest or weed control at 31 g/ha [5] | pest or weed control at 125 g/ha [5] | pest or weed control at 31 g/ha [6] | pest or weed control at 125 g/ha [6] | Plant response rating (0 to 100 scale), Galium [7] | pest or weed control at 125 g/ha [7] | Plant response rating (0 to 100 scale), Corn (corn (Zea mays)) | plant injury at 125 g/ha (corn (Zea mays)) | Plant response rating (0 to 100 scale), Kochia (kochia (Kochia scoparia) [8]) | pest or weed control at 125 g/ha (kochia (Kochia scoparia) [8]) | Plant response rating (0 to 100 scale), Wheat [9] | plant injury at 125 g/ha [9] | also measured
1 | Cc1nn(C)c(=O)c(-c2ccc(F)c3ccoc23)c1O [Compound 68, 4-(4-fluoro-7-benzofuranyl)-5-hydroxy-2,6-dimethyl-3(2H)-pyridazinone] | 30% | 60% | 20% | 80% | 0% | 80% | 0% | 20% | 0% | 20% | 30% | 50% | 60 | 90% | 0 | 0% | 20 | 90% | 0 | 0% | pest or weed control at 31 g/ha [10]: 0%; pest or weed control at 125 g/ha [10]: 60%; Plant response rating (0 to 100 scale), Ryegrass, It. [11]: 80; pest or weed control at 125 g/ha [11]: 90%; Plant response rating (0 to 100 scale), Pigweed [12]: 0; pest or weed control at 125 g/ha [12]: 20%; Plant response rating (0 to 100 scale), Foxtail, Giant [13]: 0; pest or weed control at 125 g/ha [13]: 20%; pest or weed control at 31 g/ha [14]: 0%; pest or weed control at 125 g/ha [14]: 10%; Plant response rating (0 to 100 scale), Ragweed [15]: 0; pest or weed control at 125 g/ha [15]: 10%; pest or weed control at 250 g/ha [16]: 0%; plant injury at 250 g/ha (rice (Oryza sativa)): 0%; pest or weed control at 250 g/ha [17]: 0%
2 | COc1c(C)nn(C)c(=O)c1-c1ccc(F)c2ccoc12 [Compound 69, 4-(4-fluoro-7-benzofuranyl)-5-methoxy-2,6-dimethyl-3(2H)-pyridazinone] | 0% | 0% | 0% | 0% | 0% | 0% | 0% | 0% | 0% | 0% | 0% | 0% | 0 | 0% | 0 | 0% | 0 | 0% | 0 | 0% | pest or weed control at 31 g/ha [10]: 0%; pest or weed control at 125 g/ha [10]: 0%; Plant response rating (0 to 100 scale), Ryegrass, It. [11]: 0; pest or weed control at 125 g/ha [11]: 0%; Plant response rating (0 to 100 scale), Pigweed [12]: 0; pest or weed control at 125 g/ha [12]: 0%; Plant response rating (0 to 100 scale), Foxtail, Giant [13]: 0; pest or weed control at 125 g/ha [13]: 0%; pest or weed control at 31 g/ha [14]: 0%; pest or weed control at 125 g/ha [14]: 0%; Plant response rating (0 to 100 scale), Ragweed [15]: 0; pest or weed control at 125 g/ha [15]: 0%; pest or weed control at 250 g/ha [16]: 0%; plant injury at 250 g/ha (rice (Oryza sativa)): 0%; pest or weed control at 250 g/ha [17]: 0%
